For data set [1] the following is noted: 13-membered ring.
Data set [2] deals with T1, CFTR-mediated chloride transport in human intestinal epithelial enteroid cells (Homo sapiens, UniProt P13569). Put plainly: Membrane potential dye, Enteroid Assay B. The class given is cell-based. Particulars: Enteroid Assay B; for EC50: read-out: Ent. B EC50. Here is the method:
Base medium (ADF+++) consisted of Advanced DMEM/Ham's F12, 2 mM Glutamax, 10 mM HEPES, […] penicillin/streptomycin.
Bath 1 Buffer consisted of 1 mM MgCl2, 160 mM NaCl, 4.5 mM KCl, 10 mM HEPES, 10 mM Glucose, 2 mM CaCl2.
Chloride Free Buffer consisted of 1 mM Magnesium Gluconate, 2 mM Calcium Gluconate, 4.5 mM Potassium Gluconate, 160 mM Sodium Gluconate, 10 mM HEPES, 10 mM Glucose.
Bath1 Dye Solution consisted of Bath 1 Buffer, 0.04% Pluronic F127, 20 μM Methyl Oxonol, 30 μM CaCCinh-A01, 30 μM Chicago Sky Blue.
Chloride Free Dye Solution consisted of Chloride Free Buffer, 0.04% Pluronic F127, 20 μM Methyl Oxonol, 30 μM CaCCinh-A01, 30 μM Chicago Sky Blue.
3. Enteroid Cell Harvesting and Seeding
Cells were recovered in cell recovery solution, collected by centrifugation at 650 rpm for 5 min at 4° C., resuspended in TryPLE and incubated for 5 min at 37° C. Cells were then collected by centrifugation at 650 rpm for 5 min at 4° C. and resuspended in IEMM containing 10 μM ROCK inhibitor (RI).
5. Membrane Potential Dye, Enteroid Assay B
Briefly, cells were washed 5 times in Bath 1 Buffer. Bath 1 Dye Solution was added and the cells were incubated for 25 min at room temperature. Following dye incubation, cells were washed 3 times in Chloride Free Dye Solution. Chloride transport was initiated by addition of Chloride Free Dye Stimulation Solution and the fluorescence signal was read for 15 min.

In data set [3] the target is T1, CFTR-mediated chloride transport in human intestinal epithelial enteroid cells. Put plainly: Membrane potential dye, Enteroid Assay A. Format: cell-based. Particulars: for EC50: read-out: Ent. A EC50. The method, boiled down:
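Membrane potential dye (20 μM methyl oxonol, with 30 μM CaCCinh-A01 and 30 μM Chicago Sky Blue) loaded 25 min at room temperature into ROCK-inhibitor-seeded human enteroid cells. Chloride-free stimulation buffer triggered transport, followed by 15 min fluorescence. % Activity relative to 3 μM/3 μM/300 nM triple-combination control.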

[4] abbreviates: enteroid cells incubated with test compound 18-24 hours, acute 10 μM forskolin and 300 nM N-[2,4-bis(1,1-dimethylethyl)-5-hydroxyphenyl]-1,4-dihydro-4-oxoquinoline-3-carboxamide.
Setting [5] is: percentage of chloride transport of triple combination control (3 μM N-[(6-amino-2-pyridyl)sulfonyl]-6-(3-fluoro-5-isobutoxy-phenyl)-2-[(4S)-2,2,4-trimethylpyrrolidin-1-yl]pyridine-3-carboxamide based).

The structures appear in SMILES notation. Like-named read-outs stand apart in the source and are kept apart here. Bounds are passed on as bounds.

T1 sequence (P13569 with tags, fused parts or gaps DEL508-508): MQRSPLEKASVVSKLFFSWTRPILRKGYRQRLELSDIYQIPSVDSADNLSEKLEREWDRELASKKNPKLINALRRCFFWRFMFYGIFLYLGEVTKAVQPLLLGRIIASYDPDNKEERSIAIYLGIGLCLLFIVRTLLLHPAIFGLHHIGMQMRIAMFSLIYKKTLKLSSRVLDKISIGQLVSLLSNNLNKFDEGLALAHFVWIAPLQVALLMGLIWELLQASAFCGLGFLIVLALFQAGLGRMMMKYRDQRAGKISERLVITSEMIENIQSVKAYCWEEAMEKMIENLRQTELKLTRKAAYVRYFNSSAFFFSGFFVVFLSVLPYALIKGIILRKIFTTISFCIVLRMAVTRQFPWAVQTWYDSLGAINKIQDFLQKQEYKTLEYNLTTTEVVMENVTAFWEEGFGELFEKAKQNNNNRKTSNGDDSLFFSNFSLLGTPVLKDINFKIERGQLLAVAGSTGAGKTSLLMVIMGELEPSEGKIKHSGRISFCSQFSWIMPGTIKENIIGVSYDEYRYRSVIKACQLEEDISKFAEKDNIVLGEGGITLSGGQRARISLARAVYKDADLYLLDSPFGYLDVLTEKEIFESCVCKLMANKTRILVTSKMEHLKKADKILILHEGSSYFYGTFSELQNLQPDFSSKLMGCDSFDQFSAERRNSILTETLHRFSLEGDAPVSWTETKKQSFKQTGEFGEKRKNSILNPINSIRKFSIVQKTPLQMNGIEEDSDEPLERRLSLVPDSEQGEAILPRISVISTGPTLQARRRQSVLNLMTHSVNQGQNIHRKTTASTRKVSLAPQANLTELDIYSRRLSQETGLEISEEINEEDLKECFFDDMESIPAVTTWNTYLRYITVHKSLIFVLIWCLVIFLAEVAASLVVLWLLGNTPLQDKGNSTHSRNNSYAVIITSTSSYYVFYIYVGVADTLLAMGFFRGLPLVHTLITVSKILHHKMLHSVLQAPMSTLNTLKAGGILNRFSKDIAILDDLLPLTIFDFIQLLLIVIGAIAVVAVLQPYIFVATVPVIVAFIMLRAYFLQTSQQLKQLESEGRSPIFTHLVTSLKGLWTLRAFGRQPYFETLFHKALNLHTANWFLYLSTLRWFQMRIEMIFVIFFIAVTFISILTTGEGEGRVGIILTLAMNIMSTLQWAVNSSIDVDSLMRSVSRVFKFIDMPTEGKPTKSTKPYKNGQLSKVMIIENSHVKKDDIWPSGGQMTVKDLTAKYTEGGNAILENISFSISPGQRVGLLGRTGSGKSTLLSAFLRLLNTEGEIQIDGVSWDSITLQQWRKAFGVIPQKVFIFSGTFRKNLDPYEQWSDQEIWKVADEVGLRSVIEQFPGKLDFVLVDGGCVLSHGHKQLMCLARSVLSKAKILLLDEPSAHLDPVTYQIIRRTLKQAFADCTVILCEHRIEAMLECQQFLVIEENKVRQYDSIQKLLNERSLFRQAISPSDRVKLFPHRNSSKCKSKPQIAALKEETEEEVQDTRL

`Cc1cccc(C)c1-c1cc2nc(n1)NS(=O)(=O)c1cccc(c1)C(=O)N1CC(C)(C)CC(O2)C1CC(C)C` (stereo not drawn): the ring closure, isolated yield amounted to 23% in data set [1] (from Cc1cccc(C)c1-c1cc(Cl)nc(NS(=O)(=O)c2cccc(C(=O)N3CC(C)(C)CC(O)C3CC(C)C)c2)n1, snar bond, NaH, DMF, 16.4 mM, 25.0 °C, 16.0 h) and 72% in data set [1] (from Cc1cccc(C)c1-c1cc(Cl)nc(NS(=O)(=O)c2cccc(C(=O)N3CC(C)(C)CC(O)C3CC(C)C)c2)n1, snar bond, NaH, DMF, 17.8 mM, 25.0 °C, 8.0 h).

What is called EC50 is the concentration needed to bring the measured effect to its halfway point. Regarding `Cc1cccc(C)c1-c1cc2nc(n1)NS(=O)(=O)c1cccc(c1)C(=O)N1Cc3ccccc3C(CO2)C1` (stereo not drawn) [Compound 238, 12-(2,6-Dimethylphenyl)-15-oxa-8λ^6-thia-1,9,11,26-tetraazapentacyclo[15.7.1.13,7.110,14.018,23]heptacosa-3,5,7(27),10(26),11,13,18,20,22-nonaene-2,8,8-trione], the ring closure, yield after HPLC (from Cc1cccc(C)c1-c1cc(OCC2CNCc3ccccc32)nc(NS(=O)(=O)c2cccc(C(=O)O)c2)n1, amide bond, 14-membered ring, HATU/DIEA, DMF/THF, 136.0 mM, 16.0 h, 2 steps) is 5%. The half-maximal effective concentration (EC50) in data set [2] is below 1000 nM.

Take `Cc1cccc(C)c1-c1cc2nc(n1)NS(=O)(=O)c1cccc(c1)C(=O)N1CCN(C(=O)OC(C)(C)C)CC1CO2` (stereo not drawn): the ring closure, isolated yield in data set [1] (from Cc1cccc(C)c1-c1cc(OCC2CN(C(=O)OC(C)(C)C)CCN2)nc(NS(=O)(=O)c2cccc(C(=O)O)c2)n1, amide bond, HATU/DIEA, DMF, 13.8 mM, 25.0 °C, 2.0 h, 2 steps) is 81%.

Regarding `Cc1cccc(C)c1-c1cc2nc(n1)NS(=O)(=O)c1cccc(c1)C(=O)N1C(c3ncc(OC(C)C)cn3)CCCC(CC(C)C)C1CO2` (single isomer, unassigned; isomer a), the ring closure, isolated yield in data set [1] (from Cc1cccc(C)c1-c1cc(OCC2NC(c3ncc(OC(C)C)cn3)CCCC2CC(C)C)nc(NS(=O)(=O)c2cccc(C(=O)O)c2)n1, amide bond, CDMT/NMM, DMF, 16.2 mM, 40.0 h, 2 steps) came to 35%.

For `Cc1cccc(C)c1-c1cc2nc(n1)NS(=O)(=O)c1cccc(c1)C(=O)N1C(c3ncc(OC(C)C)cn3)CCCC(O2)[C@H]1CC(C)C` (stereo partly drawn), the ring closure, isolated yield in data set [1] (from Cc1cccc(C)c1-c1cc(OC2CCCC(c3ncc(OC(C)C)cn3)N[C@@H]2CC(C)C)nc(NS(=O)(=O)c2cccc(C(=O)O)c2)n1, amide bond, CDMT/NMM, DMF, 7.3 mM, 60.0 h) amounted to 14%.

As for `Cc1cccc(C)c1-c1cc2nc(n1)NS(=O)(=O)c1cccc(c1)C(=O)N1C(c3ncc(OC(C)C)cn3)CCCC(O2)[C@H]1CC(C)C` (single isomer, unassigned; isomer 1), in data set [1] (from Cc1cccc(C)c1-c1cc(OC2CCCC(c3ncc(OC(C)C)cn3)N[C@@H]2CC(C)C)nc(NS(=O)(=O)c2cccc(C(=O)O)c2)n1, amide bond, CDMT/NMM, DMF, 16.3 mM, 24.0 h), the ring closure, isolated yield was found to be 23%.

Turning to `Cc1cccc(C)c1-c1cc2nc(n1)NS(=O)(=O)c1cccc(c1)C(=O)N1Cc3cc(C(C)(C)C)ccc3C(C1)O2` (stereo not drawn), the ring closure, isolated yield in data set [1] (from Cc1cccc(C)c1-c1cc(OC2CNCc3cc(C(C)(C)C)ccc32)nc(NS(=O)(=O)c2cccc(C(=O)O)c2)n1, amide bond, HATU/NaOtBu, THF/DMF, 25.0 °C, 0.25 h, 3 steps) is 14%.

Consider `Cc1cccc(C)c1-c1cc2nc(n1)NS(=O)(=O)c1cccc(c1)C(=O)N1CCc3cc(C(C)(C)C)ccc3C(O2)[C@H]1CC(C)C` (single isomer, unassigned) [Compound 237], for which the ring closure, yield after HPLC (from Cc1cccc(C)c1-c1cc(OC2c3ccc(C(C)(C)C)cc3CCN[C@@H]2CC(C)C)nc(NS(=O)(=O)c2cccc(C(=O)O)c2)n1, amide bond, 13-membered ring, NaOtBu, HATU, THF/DMF, 19.2 mM, 0.0 °C, 0.08 h, 2 steps) amounted to 18%. In data set [2], the EC50 was below 1000 nM.

Compound `Cc1cccc(C)c1-c1cc2nc(n1)NS(=O)(=O)c1cccc(c1)C(=O)N1CCN(C(=O)OC(C)(C)C)C[C@H]1CO2` came in with a ring closure, isolated yield in data set [1] (from Cc1cccc(C)c1-c1cc(Cl)nc(NS(=O)(=O)c2cccc(C(=O)N3CCN(C(=O)OC(C)(C)C)C[C@H]3CO)c2)n1, snar bond, NaH, NMP, 4.4 mM, 70.0 °C, 2.0 h, 2 steps) of 19%.

Regarding `Cc1cccc(C)c1-c1cc2nc(n1)NS(=O)(=O)c1cccc(c1)C(=O)N1Cc3cccnc3C(C1)O2` (single isomer, unassigned) [Compound 195, 12-(2,6-dimethylphenyl)-15-oxa-8λ^6-thia-1,9,11,18,25-pentaazapentacyclo[14.7.1.13,7.110,14.017,22]hexacosa-3,5,7(26),10(25),11,13,17,19,21-nonaene-2,8,8-trione], the ring closure, yield after HPLC (from Cc1cccc(C)c1-c1cc(OC2CNCc3cccnc32)nc(NS(=O)(=O)c2cccc(C(=O)O)c2)n1, amide bond, 13-membered ring, HATU/DIEA, DMF, 8.0 mM, 1.0 h) was determined as 76%. In data set [3] (setting [4]), the concentration giving a half-maximal response (EC50) was in the range of 3000 to 30000 nM. In data set [3] (setting [5]), the “Ent. A Max Activity (%)” value is listed as “++ (++ is 30-60%)”.

As for `Cc1cccc(C)c1-c1cc2nc(n1)NS(=O)(=O)c1cccc(c1)C(=O)N1CCN(C(=O)OC(C)(C)C)CC1C(Cc1ccccc1)O2` (stereo not drawn) [Compound 175, tert-butyl 9-benzyl-13-(2,6-dimethylphenyl)-2,17,17-trioxo-10-oxa-17λ^6-thia-3,6,14,16,23-pentaazatetracyclo[16.3.1.111,15.03,8]tricosa-1(22),11,13,15(23),18,20-hexaene-6-carboxylate], the ring closure, yield after HPLC (from Cc1cccc(C)c1-c1cc(OC(Cc2ccccc2)C2CN(C(=O)OC(C)(C)C)CCN2)nc(NS(=O)(=O)c2cccc(C(=O)O)c2)n1, amide bond, 13-membered ring, HATU/DIEA, DMF, 10.8 mM, 25.0 °C, 0.083 h) is 55%. For the same compound, in data set [3] (Enteroid Assay A), the “Ent. A Max Activity (%)” value is “++ (++ is 30-60%)” and the 50% effective concentration (EC50) is below 1000 nM.

The compound `Cc1cccc(C)c1-c1cc2nc(n1)NS(=O)(=O)c1cccc(c1)C(=O)N1C[C@@H](CCCC1CC(C)C)O2` (stereo partly drawn) [Compound 181, (16R)-12-(2,6-Dimethylphenyl)-20-(2-methylpropyl)-15-oxa-8λ^6-thia-1,9,11,22-tetraazatetracyclo[14.4.1.13,7.110,14]tricosa-3(23),4,6,10(22),11,13-hexaene-2,8,8-trione] returned a ring closure, yield after HPLC (from Cc1cccc(C)c1-c1cc(Cl)nc(NS(=O)(=O)c2cccc(C(=O)N3C[C@H](O)CCCC3CC(C)C)c2)n1, snar bond, 13-membered ring, NaOtBu, THF, 17.5 mM, 25.0 °C, 24.0 h) of 4%. Also, in data set [2], the “Ent. B Max Activity (%)” value was “++ (++ is 30-60%)” and the half-maximal effective concentration (EC50) was below 1000 nM.

As for `Cc1cccc(C)c1-c1cc2nc(n1)NS(=O)(=O)c1cccc(c1)C(=O)N1Cc3cnccc3C(C1)O2` (stereo not drawn) [Compound 194, 12-(2,6-Dimethylphenyl)-15-oxa-8λ^6-thia-1,9,11,20,25-pentaazapentacyclo[14.7.1.13,7.110,14.017,22]hexacosa-3(26),4,6,10,12,14(25),17,19,21-nonaene-2,8,8-trione], the ring closure, yield after HPLC (from Cc1cccc(C)c1-c1cc(OC2CNCc3cnccc32)nc(NS(=O)(=O)c2cccc(C(=O)O)c2)n1, amide bond, 13-membered ring, HATU/DIEA, DMF, 19.0 mM, 0.5 h, 3 steps) amounted to 1%. For the same compound, the EC50 in data set [3] (setting [4]) lay in the range of 3000 to 30000 nM. The “Ent. A Max Activity (%)” value in data set [3] (setting [5]) was “++ (++ is 30-60%)”.

In turn, `Cc1cccc(C)c1-c1cc2nc(n1)NS(=O)(=O)c1cccc(c1)C(=O)N1CCN(C(C)(C)C)C[C@H](C1)O2` [Compound 71, (16R)-18-tert-Butyl-12-(2,6-dimethylphenyl)-15-oxa-8λ^6-thia-1,9,11,18,22-pentaazatetracyclo[14.4.1.13,7.110,14]tricosa-3(23),4,6,10(22),11,13-hexaene-2,8,8-trione] had a ring closure, yield after HPLC (from Cc1cccc(C)c1-c1cc(Cl)nc(NS(=O)(=O)c2cccc(C(=O)N3CCN(C(C)(C)C)C[C@@H](O)C3)c2)n1, snar bond, 13-membered ring, NaH, DMF, 33.9 mM, 25.0 °C, 4.17 h) of 37%. Further, in data set [3] (Enteroid Assay A), the “Ent. A Max Activity (%)” value is listed as “+++ (+++ is >600%)” and the EC50 is below 1000 nM.

`Cc1cccc(C)c1-c1cc2nc(n1)NS(=O)(=O)c1cccc(c1)C(=O)N1Cc3ncccc3C(C1)O2` (stereo not drawn) [Compound 198, 12-(2,6-Dimethylphenyl)-15-oxa-8λ^6-thia-1,9,11,21,25-pentaazapentacyclo[14.7.1.13,7.110,14.017,22]hexacosa-3,5,7(26),10(25),11,13,17,19,21-nonaene-2,8,8-trione] gave a ring closure, yield after HPLC (from Cc1cccc(C)c1-c1cc(OC2CNCc3ncccc32)nc(NS(=O)(=O)c2cccc(C(=O)O)c2)n1, amide bond, 13-membered ring, HATU/DIEA, NMP, 132.0 mM, 25.0 °C, 1.0 h) of 44%. Moreover, the concentration for a half-maximal effect (EC50) in data set [3] (setting [4]) lay within 1000 to 3000 nM. The “Ent. A Max Activity (%)” value in data set [3] (setting [5]) is on record as “++ (++ is 30-60%)”.

The values are drawn from patent US20240018161A1, “MODULATORS OF CYSTIC FIBROSIS TRANSMEMBRANE CONDUCTANCE REGULATOR” (VERTEX PHARMACEUTICALS INCORPORATED, priority 2020, published 2024).
